In ChEMBL document CHEMBL4400508, “Targeted Endocrine Therapy: Design, Synthesis, and Proof-of-Principle of 17β-Hydroxysteroid Dehydrogenase Type 2 Inhibitors in Bone Fracture Healing” (J Med Chem, 2019) one finds IC50, half-life and activity data, which are given here for 13 compounds.

pIC50: −log10 of the molar value.

The target in series [1] is T1, 17-beta-hydroxysteroid dehydrogenase type 1 (Homo sapiens, UniProt P14061).
T1 sequence (P14061 whole entry): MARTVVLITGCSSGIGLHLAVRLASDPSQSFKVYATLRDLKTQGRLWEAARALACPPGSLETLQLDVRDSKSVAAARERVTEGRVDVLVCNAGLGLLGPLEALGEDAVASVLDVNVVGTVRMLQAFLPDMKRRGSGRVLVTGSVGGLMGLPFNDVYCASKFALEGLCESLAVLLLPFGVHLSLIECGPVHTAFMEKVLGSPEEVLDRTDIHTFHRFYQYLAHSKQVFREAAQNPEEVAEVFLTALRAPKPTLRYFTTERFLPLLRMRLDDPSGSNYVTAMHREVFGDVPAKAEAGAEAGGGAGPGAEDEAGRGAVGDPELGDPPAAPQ
Description: Inhibition of human placental cytosolic fraction 17beta-HSD1 using [3H]-E1 as substrate in presence of NAD+ by radio-HPLC analysis

In series [2] the target is T2, Estradiol 17-beta-dehydrogenase 2 (Mus musculus, UniProt P51658).
T2 sequence (P51658 whole entry): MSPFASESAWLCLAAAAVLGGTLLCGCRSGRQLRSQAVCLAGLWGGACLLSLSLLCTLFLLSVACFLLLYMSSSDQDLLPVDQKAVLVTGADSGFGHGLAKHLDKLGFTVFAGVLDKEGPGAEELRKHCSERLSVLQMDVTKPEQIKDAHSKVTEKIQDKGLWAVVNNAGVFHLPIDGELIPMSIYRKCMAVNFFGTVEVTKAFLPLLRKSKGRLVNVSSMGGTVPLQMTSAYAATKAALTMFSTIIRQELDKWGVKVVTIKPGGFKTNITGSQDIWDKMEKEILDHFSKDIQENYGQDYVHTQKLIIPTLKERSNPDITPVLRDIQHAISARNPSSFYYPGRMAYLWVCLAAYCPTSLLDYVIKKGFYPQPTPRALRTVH
Kind of series: biochemical. The series is classed as tissue-based, Liver.
Description: Inhibition of mouse liver homogenate 17beta-HSD2 using [3H]-E2 as substrate in presence of NAD+ by radio-HPLC analysis

Series [3] in a line: in vitro. The note with it: human, s9.
Description: Half life in human liver S9 fraction in presence of NADPH, UDPGA, PAPS
Series [4] addresses T3, 17-beta-hydroxysteroid dehydrogenase type 1 (Mus musculus, UniProt P51656).
T3 sequence (P51656 whole entry): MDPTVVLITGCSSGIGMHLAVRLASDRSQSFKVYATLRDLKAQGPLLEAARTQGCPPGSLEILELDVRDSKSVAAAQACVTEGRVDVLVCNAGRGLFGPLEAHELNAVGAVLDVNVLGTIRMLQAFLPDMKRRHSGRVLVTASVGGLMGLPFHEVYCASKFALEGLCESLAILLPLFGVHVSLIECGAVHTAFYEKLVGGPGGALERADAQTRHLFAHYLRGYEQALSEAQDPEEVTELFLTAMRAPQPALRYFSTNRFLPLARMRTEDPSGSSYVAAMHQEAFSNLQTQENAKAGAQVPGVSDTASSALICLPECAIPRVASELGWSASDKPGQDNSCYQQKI
The series is classed as cell-based, HEK293.
Description: Inhibition of recombinant mouse 17beta-HSD1 expressed in HEK293 cells using [3H]-E1 as substrate in presence of NAD+ by radio-HPLC analysis

Series [5] concerns the target T4, AhR (aryl hydrocarbon receptor); CYP1 induction (Homo sapiens, UniProt P35869).
T4 sequence (P35869 whole entry): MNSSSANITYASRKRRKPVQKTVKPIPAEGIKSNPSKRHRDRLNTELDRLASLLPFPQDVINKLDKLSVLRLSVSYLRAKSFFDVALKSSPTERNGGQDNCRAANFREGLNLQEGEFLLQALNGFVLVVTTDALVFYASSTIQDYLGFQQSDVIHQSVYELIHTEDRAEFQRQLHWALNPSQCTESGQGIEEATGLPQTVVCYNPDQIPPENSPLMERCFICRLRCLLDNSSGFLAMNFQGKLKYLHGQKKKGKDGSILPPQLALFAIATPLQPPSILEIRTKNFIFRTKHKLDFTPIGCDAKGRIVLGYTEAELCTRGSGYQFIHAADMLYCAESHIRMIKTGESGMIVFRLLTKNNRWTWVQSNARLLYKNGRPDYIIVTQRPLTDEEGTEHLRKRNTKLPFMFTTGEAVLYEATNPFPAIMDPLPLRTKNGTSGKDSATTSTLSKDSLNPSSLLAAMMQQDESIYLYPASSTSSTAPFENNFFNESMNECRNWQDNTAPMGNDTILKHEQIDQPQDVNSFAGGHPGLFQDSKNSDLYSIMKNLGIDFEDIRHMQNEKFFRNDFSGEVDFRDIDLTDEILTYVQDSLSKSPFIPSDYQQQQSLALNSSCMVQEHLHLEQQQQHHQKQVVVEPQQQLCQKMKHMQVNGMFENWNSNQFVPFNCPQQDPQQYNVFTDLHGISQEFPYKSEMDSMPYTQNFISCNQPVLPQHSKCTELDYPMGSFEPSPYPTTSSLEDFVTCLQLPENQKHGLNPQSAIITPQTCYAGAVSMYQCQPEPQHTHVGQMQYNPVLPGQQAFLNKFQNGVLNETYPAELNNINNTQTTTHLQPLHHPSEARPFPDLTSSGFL
The series can be described thus: in vitro. The note with it: hepg2.
Description: Agonist activity at AhR in human HepG2 assessed as induction of CYP1 at 3.16 uM relative to control

In series [6] the target is T5, PXR (NR1I2); CYP3 induction (Homo sapiens, UniProt O75469).
T5 sequence (O75469 whole entry): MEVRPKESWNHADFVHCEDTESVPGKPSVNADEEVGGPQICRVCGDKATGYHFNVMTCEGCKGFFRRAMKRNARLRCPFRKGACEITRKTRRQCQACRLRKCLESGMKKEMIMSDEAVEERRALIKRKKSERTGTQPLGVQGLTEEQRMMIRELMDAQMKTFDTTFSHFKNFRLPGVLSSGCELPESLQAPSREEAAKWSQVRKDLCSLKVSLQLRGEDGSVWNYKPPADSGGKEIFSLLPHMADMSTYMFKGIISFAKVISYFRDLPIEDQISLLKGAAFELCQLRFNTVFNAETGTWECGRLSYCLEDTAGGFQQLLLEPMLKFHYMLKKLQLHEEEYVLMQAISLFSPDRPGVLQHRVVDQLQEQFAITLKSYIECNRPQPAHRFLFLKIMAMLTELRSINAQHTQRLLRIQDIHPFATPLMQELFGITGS
The series can be described thus: in vitro.
Description: Agonist activity at recombinant human PXR assessed as induction of CYP3 at 3.16 uM after 60 mins relative to control

Series [7] deals with T6, constitutive androstane receptor (NR1I3); CYP2 induction (Homo sapiens, UniProt Q14994).
T6 sequence (Q14994 whole entry): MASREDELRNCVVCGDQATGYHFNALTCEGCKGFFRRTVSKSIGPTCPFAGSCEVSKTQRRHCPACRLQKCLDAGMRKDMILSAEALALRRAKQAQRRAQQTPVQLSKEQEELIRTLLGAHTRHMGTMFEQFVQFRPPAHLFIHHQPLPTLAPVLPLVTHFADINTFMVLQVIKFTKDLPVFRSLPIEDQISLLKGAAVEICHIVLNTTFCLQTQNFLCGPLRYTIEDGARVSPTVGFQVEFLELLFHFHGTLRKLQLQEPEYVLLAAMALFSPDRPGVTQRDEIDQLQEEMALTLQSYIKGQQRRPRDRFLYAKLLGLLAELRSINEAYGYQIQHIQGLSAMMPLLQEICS
The series can be described thus: in vitro.
Description: Agonist activity at recombinant human constitutive androstane receptor assessed as induction of CYP2 at 3.16 uM relative to control

For the compound `O=C(c1ccc(-c2cccc(NS(=O)(=O)c3ccccc3)c2)s1)c1c(F)ccc(O)c1Cl`, the figures for the pIC50 in series [1] and in series [2] were 7.81 and 8.57, respectively. The half-life in series [3] was under 5 min.

On to `O=C(c1ccc(-c2cccc(NS(=O)(=O)c3ccc(Cl)cc3)c2)s1)c1cc(F)c(F)c(O)c1F`, for which the pIC50 in series [1] is 9.15; in series [2] it was 8.21. The compound also returned a half-life in series [3] of 40 min.

Turning to `O=C(c1ccc(-c2cccc(NS(=O)(=O)c3cccc(Cl)c3)c2)s1)c1cc(F)c(F)c(O)c1F`, the pIC50 was 9.10 in series [1] and 8.25 in series [2]. The same compound had a half-life in series [3] of 42 min.

For `O=C(c1ccc(-c2cccc(NS(=O)(=O)c3ccccc3)c2)s1)c1c(Cl)ccc(O)c1F`, the pIC50 in series [1] is 8.77.

In the case of `O=C(c1ccc(Cl)c(O)c1)c1ccc(-c2cccc(NS(=O)(=O)c3ccccc3)c2)s1`, in series [1], the negative-log IC50 (pIC50) is 8.09. This pIC50 lies 0.68 log units lower than the previous one.

In series [3], `O=C(c1ccc(-c2cccc(NS(=O)(=O)c3ccccc3C(F)(F)F)c2)s1)c1cc(F)c(F)c(O)c1F` came in with a half-life of 51 min.

For `Cc1ccc(S(=O)(=O)Nc2cccc(-c3ccc(C(=O)c4cc(F)c(F)c(O)c4F)s3)c2)cc1`, the pIC50 in series [1] is 10.00; in series [2] it was 8.00. Further, the half-life in series [3] was 32 min.

`O=C(c1ccc(-c2cccc(NS(=O)(=O)c3ccccc3)c2)s1)c1c(F)ccc(O)c1F`: the results for the pIC50 in series [1] and in series [2] were 8.85 and 7.52, respectively.

In series [4], `O=C(c1ccc(-c2cccc(NS(=O)(=O)c3ccccc3OC(F)(F)F)c2)s1)c1cc(F)c(F)c(O)c1F` had a negative-log IC50 (pIC50) of 5.75. For the same compound, the activity at 3.16 µM in series [5] and in series [7] was under 5% in each case. Moreover, in series [6], the activity at 1 h, 3.16 µM is under 5%. Besides, the half-life in series [3] came out at 60 min.

For the compound `O=C(c1ccc(-c2cccc(NS(=O)(=O)c3ccccc3)c2)s1)c1cccc(O)c1Cl`, the pIC50 in series [1] was 7.69; in series [2], 8.57. The compound also came in with a half-life in series [3] of under 5 min.

For `Cc1cccc(S(=O)(=O)Nc2cccc(-c3ccc(C(=O)c4cc(F)c(F)c(O)c4F)s3)c2)c1`, the pIC50 in series [1] was 10.00; in series [2], 8.10. Moreover, the half-life in series [3] was 28 min.

In turn, `Cc1c(O)cccc1C(=O)c1ccc(-c2cccc(NS(=O)(=O)c3ccccc3)c2)s1` had a pIC50 in series [1] of 6.51.

Consider `O=C(c1ccc(-c2cccc(NS(=O)(=O)c3ccc(F)cc3)c2)s1)c1cc(F)c(F)c(O)c1F`, for which the pIC50 in series [2] was 7.56. For the same compound, the half-life in series [3] was 32 min.

The pIC50 is the negative decadic logarithm of the IC50, by convention in mol/L. The term half-life denotes the time in which the quantity being followed falls by half. A higher half-life goes with slow loss.
